The values below come from US6482851B1, “Synthesis of dysidiolide and uses thereof” (Sloan-Kettering Institute for Cancer Research, priority 1998, dated 2002).

For one data set, the system named is Cdk2. Nature of the data set: Cdk2 kinase activity on immunoprecipitates from treated MCF7 cells. The format is cell-based, human. The protocol: Effect of dysidiolide on the activity of Cdk2 and on the steady-state levels of Cdc25A and Cdc25C. MCF7 cells were treated for 2 or 4 hr with 0, 2 or 10 μM dysidiolide. A) The kinase activity of Cdk2 was assayed on immunoprecipitates using histone H1 as exogenous substrate. B) The steady-state levels of Cdc25 A and C were analyzed in total cell lysates with specific antibodies (Santa Cruz Biotechnology's sc097 and sc327 antibodies were used for detection of Cdc25 A and C, respectively).
Effect of a 24 hr treatment with 50 μM dysidiolide on the kinase activity of Cdk4, Cdk2 and Cdc2. Cdk were immunoprecipitated from MCF7 cell lysates obtained from cultures treated or not with dysidiolide for 24 hr. Histone H1 was used as substrate for Cdk2 and Cdc2, whereas GST-Rb was the substrate for Cdk4.
To further characterize the effects of dysidiolide on cell cycle control, experiments were conducted at the molecular level. As Cdc25s (A, B and C) are positive regulators of cyclin-dependent kinases (Cdk) (reviewed in Draetta and Eckstein, BBA 1332: M53-M63, 1997) inhibition of Cdc25 is expected to result in inhibition of Cdk activity. MCF7 cells were treated with 2 or 10 μM dysidiolide or with DMSO (controls) for 2 or 4 hr. Cell extracts were used to measure the steady-state levels of Cdc25 A and C, and Cdk activity. […]

Data set [1] deals with MCF7 human breast cancer cells. Nature of the data set: BrdU pulse-chase S phase progression. It is filed as cell-based. As to the method:
Effect of 10 μM dysidiolide on cell cycle progression of S-phase MCF7 cells (BrdU-positive). MCF7 cultures were pulse-labeled with 10 μM BrdU for 30 min. Cultures were washed extensively with phosphate-buffered saline (PBS) solution and fresh media was added, supplemented or not with 10 μM dysidiolide. The final DMSO concentration of control and drug cultures was 0.05%. Cells were harvested at different times after the BrdU pulse and cells were stained for DNA content with propidium iodide, and for BrdU, with a monoclonal anti-BrdU antibody coupled to fluorescein. The progression of this group of cells through the cell cycle was followed by dual wavelength flow cytometry.
Effect of 50 μM dysidiolide on cell cycle progression of S-phase MCF7 cells. MCF7 cells were pulse-labeled for 30 min with BrdU, and chased for 24 hr in the presence or absence of 50 μM dysidiolide. BrdU versus DNA content plots are shown for cell cultures harvested just after the pulse (time 0, “0”), and after the chase with (“24+”) or without drug (“24−”)
To further analyze the cell cycle effects induced by dysidiolide, the effects of the drug on S phase progression were tested. For this purpose, a subset of cells was pulse-labeled with the thymidine analog, 5-bromodeoxyuridine (BrdU) for 30 min, and chased in the presence or absence of dysidiolide. The progression of this group of cells through the cell cycle was followed by flow cytometry, by analyzing the intensity of BrdU labeling and DNA content at two different wavelengths: red for propidium iodide stain (DNA content) and green for the detection of anti-BrdU antibodies coupled to fluorescein (Becton-Dickinson Immunocytometric Systems, San Jose, Calif.). The first experiment was conducted on MCF7 human breast cancer cells chased for varying time periods after a 30 min BrdU pulse, with or without 10 μM dysidiolide. After a 24 hr chase in the presence of the drug, fewer cells had reached G1 (FIG. 6). However, the effect was modest in intensity (approximately 45% less cells reached G1 in treated samples, compared with untreated controls) […]

The subject of a further data set is MX1 tumor xenografts. Briefly: MX1 tumor xenografts in nude mice. The conditions noted are these: Sixty three mg/kg. The format is in vivo. As to the method: Dysidiolide inhibited the growth of MX1 tumor xenografts in nude mice. Sixty three mg/kg dysidiolide inhibited (A) tumor growth by 70% while (B) animal weight (and indication of overall toxicity) remained higher than 90% of controls.
Therapeutic Effects of Dysidiolide and Taxol in Nude Mice bearing MX-1. MX-1 cell 50 μg was implanted s.c. on day 0. Every other day i.v. treatments were given on day 3,5,7,9 and 11. The average tumor volume of control group on day 3, 7, 9, 11 and 13 were 62, 75, 113, 155 and 264 mm^3, respectively. Solvents: Dysidiolide [20-40 μl DMSO+100 μl (Cremophor: EtOH=1:1)+Saline] Taxol [Clinical use (Cremophor+EtOH=1:1)+Saline].

Another data set relates to human tumor cell lines. Nature of the data set: anchorage-dependent growth of human tumor cell lines. The format is cell-based. As to the method: (B) Effect of dysidiolide on anchorage-dependent growth of human tumor cell lines. Cells were grown in multiwell plates and treated with either various drug concentrations or with dimethylsulfoxide (vehicle control). Cell number was determined and the inhibitory concentration to induce 50% growth inhibition (IC50) was determined. (C) Furthermore, dysidiolide inhibited the growth of immortalized human mammary epithelial cells transformed by either the oncogene ras, the receptor tyrosine kinase Neu, or both agents. Again, the IC50 for growth inhibition was in the low μM range (IC50 −3 μM dysidiolide).
In summary, the synthetic dysidiolide is an active drug in human tumor cell lines. It induces cytotoxicity, as detected by loss of Trypan blue exclusion and by the appearance of cells containing fragmented DNA via FACS analysis. […] Dysidiolide has the potential to be a cell cycle-targeted drug, which could be used alone or in combination with other treatments. In this regard, it may sensitize cells for DNA damaging treatments (i.e. act as a radiosensitizer). […] Cell lines derived from tumors of diverse origins were affected similarly.

Regarding `C=C(C)CCC[C@@]1(C)CCC[C@H]2C1=CC[C@H](C)[C@]2(C)C[C@H](O)C1=CC(=O)O[C@@H]1O` (racemic) [dysidiolide], the “Cdk2 protein kinase activity” value in the data set on Cdk2 (50 μM, 24 hr) is listed as “inhibition”. Moreover, the Cdk2 activity result in the data set on Cdk2 (2 or 10 μM, 2 or 4 hr) is reported as “no significant changes”. In addition, the “less cells reached G1 compared with untreated controls” value in data set [1] (10 μM, 24 hr chase after 30 min BrdU pulse) is “approximately 45%”. Further, the “cell cycle progression of BrdU-positive cells onto the next G1 phase” value in data set [1] (50 μM, 24 hr chase) is “prevented cell cycle progression”. In addition, in data set [1] (50 μM, 24 hr chase, BrdU-positive cells), the “cells with intermediate DNA content (S phase), forced fit” value is on record as “approximately 90%”. Also, in the data set on MX1 tumor xenografts, the “animal weight (indication of overall toxicity)” value is on record as “higher than 90 % of controls” and the tumor growth inhibition worked out at 70%. In addition, in the data set with human tumor cell lines (MCF7 vs. MCF/Adr and CEM vs. CEM/VBL100), the “cross-resistance with vinblastine or doxorubicin (MDR phenotype)” value is listed as “no cross-resistance”. In the data set with human tumor cell lines (a number of human tumor cancer lines, read-out: IC50 for growth inhibition of human tumor cancer lines), the IC50 lay within 500 to 4500 nM.

By IC50 is commonly meant the concentration that inhibits the measured activity by half.
